Source: patent US7491710B2 (priority 2003, dated 2009)
Where two headings read alike, the source gives them in different places.

Legend:
Assay in all cases: biochemical
CDK2/cyclin E = CDK2/cyclin E (Homo sapiens, UniProt P24941)
Aurora2 kinase = Aurora2 kinase (Homo sapiens, UniProt O14965)
human FAK = human FAK (Homo sapiens, UniProt Q05397)
human KDR enzyme = human KDR enzyme (Homo sapiens, UniProt P35968)
human Tie2 = human Tie2 (Homo sapiens, UniProt Q02763)
Chain of human Tie2 (Q02763 776-1124): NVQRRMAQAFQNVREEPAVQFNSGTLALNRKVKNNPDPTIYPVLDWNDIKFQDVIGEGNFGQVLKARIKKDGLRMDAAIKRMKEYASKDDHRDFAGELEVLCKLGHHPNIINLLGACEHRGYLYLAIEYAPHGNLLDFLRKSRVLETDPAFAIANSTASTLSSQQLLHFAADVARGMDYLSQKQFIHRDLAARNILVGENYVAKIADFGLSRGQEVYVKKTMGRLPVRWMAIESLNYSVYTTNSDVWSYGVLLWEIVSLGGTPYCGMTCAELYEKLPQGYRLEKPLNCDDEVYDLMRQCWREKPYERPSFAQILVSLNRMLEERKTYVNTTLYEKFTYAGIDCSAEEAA

Chain of Aurora2 kinase (O14965 whole entry): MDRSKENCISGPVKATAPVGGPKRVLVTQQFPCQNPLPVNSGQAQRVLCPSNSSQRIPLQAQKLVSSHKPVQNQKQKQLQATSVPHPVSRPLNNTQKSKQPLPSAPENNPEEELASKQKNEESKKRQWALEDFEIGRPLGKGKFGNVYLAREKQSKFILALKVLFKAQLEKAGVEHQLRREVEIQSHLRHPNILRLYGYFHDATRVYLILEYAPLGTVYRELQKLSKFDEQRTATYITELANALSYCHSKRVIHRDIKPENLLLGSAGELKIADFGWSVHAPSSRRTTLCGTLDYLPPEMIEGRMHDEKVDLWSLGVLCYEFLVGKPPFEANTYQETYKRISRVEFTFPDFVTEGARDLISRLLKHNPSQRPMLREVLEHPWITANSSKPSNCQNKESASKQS
Chain of human KDR enzyme (P35968 786-1356): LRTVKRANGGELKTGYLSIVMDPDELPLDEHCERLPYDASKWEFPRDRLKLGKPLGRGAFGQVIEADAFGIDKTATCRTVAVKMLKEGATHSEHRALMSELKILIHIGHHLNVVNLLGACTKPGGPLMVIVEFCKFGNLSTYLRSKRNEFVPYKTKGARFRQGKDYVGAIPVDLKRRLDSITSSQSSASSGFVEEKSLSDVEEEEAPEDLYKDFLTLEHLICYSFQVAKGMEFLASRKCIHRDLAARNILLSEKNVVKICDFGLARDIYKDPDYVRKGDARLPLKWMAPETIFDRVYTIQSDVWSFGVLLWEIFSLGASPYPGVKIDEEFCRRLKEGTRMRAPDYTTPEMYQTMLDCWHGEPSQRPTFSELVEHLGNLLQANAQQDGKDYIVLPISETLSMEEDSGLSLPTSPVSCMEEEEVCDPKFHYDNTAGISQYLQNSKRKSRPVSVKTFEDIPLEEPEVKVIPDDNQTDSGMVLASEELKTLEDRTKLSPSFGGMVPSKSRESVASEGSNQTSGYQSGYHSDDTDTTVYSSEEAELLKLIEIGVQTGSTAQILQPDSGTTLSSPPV
Chain of human FAK (Q05397 whole entry): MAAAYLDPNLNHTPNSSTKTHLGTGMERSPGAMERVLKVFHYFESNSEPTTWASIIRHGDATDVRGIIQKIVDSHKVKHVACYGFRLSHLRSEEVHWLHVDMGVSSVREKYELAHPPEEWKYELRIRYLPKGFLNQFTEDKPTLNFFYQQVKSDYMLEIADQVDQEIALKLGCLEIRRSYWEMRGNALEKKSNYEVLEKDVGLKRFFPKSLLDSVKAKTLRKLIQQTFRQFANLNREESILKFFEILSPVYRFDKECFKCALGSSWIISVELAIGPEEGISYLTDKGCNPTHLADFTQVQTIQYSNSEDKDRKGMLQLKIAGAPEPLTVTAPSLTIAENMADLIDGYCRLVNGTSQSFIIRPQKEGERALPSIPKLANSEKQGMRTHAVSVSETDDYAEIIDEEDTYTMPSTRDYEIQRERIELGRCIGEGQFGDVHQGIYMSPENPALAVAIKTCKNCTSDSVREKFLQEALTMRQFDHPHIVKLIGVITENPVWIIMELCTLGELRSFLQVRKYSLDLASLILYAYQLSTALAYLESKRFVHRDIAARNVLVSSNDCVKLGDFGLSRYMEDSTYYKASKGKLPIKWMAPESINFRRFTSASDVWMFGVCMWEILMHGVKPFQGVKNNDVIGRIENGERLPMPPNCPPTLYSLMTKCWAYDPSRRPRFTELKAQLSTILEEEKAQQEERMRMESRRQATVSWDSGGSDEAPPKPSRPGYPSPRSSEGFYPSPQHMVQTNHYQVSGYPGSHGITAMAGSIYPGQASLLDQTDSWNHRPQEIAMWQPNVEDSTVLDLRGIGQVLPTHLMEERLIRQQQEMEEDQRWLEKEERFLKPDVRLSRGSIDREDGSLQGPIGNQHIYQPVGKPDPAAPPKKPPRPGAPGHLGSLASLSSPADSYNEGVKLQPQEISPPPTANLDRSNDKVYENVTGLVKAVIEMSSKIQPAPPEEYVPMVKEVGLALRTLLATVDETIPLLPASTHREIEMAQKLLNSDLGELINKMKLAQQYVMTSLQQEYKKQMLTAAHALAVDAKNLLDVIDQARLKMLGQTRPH

SMILES	IC50 (CDK2/cyclin E)	IC50 (Aurora2 kinase)	IC50 (human FAK)	IC50 (human KDR enzyme)	IC50 (human Tie2)	IC50 (CDK2/cyclin E; read-out: CDK2 IC50)	IC50 (Aurora2 kinase; read-out: Au2 IC50)
CP(=O)(Oc1ccc2[nH]nc(/C=C/c3ccccc3)c2c1)c1ccccc1 (stereo not drawn) [Example 01, Methylphenylphosphinic acid 3-((E)-styryl)-1H-indazol-5-yl ester]	234 nM	37 nM	279 nM	158 nM	40 nM		
O=P(Oc1ccc2[nH]nc(/C=C/c3ccccc3)c2c1)(c1ccccc1)c1ccccc1 [Example 02, Diphenylphosphinic acid 3-((E)-styryl)-1H-indazol-5-yl ester]	991 nM	75 nM	3530 nM	508 nM	518 nM		
CP(=O)(Oc1ccc2[nH]nc(-c3cc4ccccc4[nH]3)c2c1)c1ccccc1 (stereo not drawn) [Example 03, Methylphenylphosphinic acid 3-(1H-indol-2-yl)-1H-indazol-5-yl ester]	142 nM	20 nM	816 nM	310 nM	3 nM		
O=P(Oc1ccc2[nH]nc(-c3cc4ccccc4[nH]3)c2c1)(c1ccccc1)c1ccccc1 [Example 04, Diphenylphosphinic acid 3-(1H-indol-2-yl)-1H-indazol-5-yl ester]	586 nM	99 nM	2900 nM	1630 nM	22 nM		
CP(=O)(Oc1ccc2[nH]nc(-c3cc4cc(OCCN5CCOCC5)ccc4[nH]3)c2c1)c1ccccc1 (stereo not drawn) [Example 05, Methylphenylphosphinic acid 3-[5-(2-morpholin-4-ylethoxy)-1H-indol-2-yl]-1H-indazol-5-yl ester]	394 nM	15 nM	48 nM	141 nM	11 nM		
COP(=O)(Oc1ccc2[nH]nc(-c3cc4ccccc4[nH]3)c2c1)c1ccccc1 (stereo not drawn) [Example 06, Phenylphosphonic acid 3-(1H-indol-2-yl)-1-H-indazol-5-yl ester methyl ester]	184 nM	15 nM	740 nM	288 nM	48 nM		
CC(C)OP(=O)(Oc1ccc2[nH]nc(-c3cc4ccccc4[nH]3)c2c1)c1ccccc1 (stereo not drawn) [Example 07, Phenylphosphonic acid 3-(1H-indol-2-yl)-1H-indazol-5-yl ester isopropyl ester]	959 nM	24 nM	9640 nM	2050 nM	162 nM		
O=P(OCc1ccccc1)(Oc1ccc2[nH]nc(-c3cc4ccccc4[nH]3)c2c1)c1ccccc1 (stereo not drawn) [Example 08, Phenylphosphonic acid 3-(1H-indol-2-yl)-1H-indazol-5-yl ester benzyl ester]	3700 nM	53 nM	8300 nM	5400 nM	130 nM		
COP(=O)(Oc1ccc2[nH]ncc2c1)c1ccccc1 (stereo not drawn) [Example 10, Phenylphosphonic acid 1H-indazol-5-yl ester methyl ester]	> 10000 nM	9130 nM	> 10000 nM		> 10000 nM		
COP(=O)(Oc1ccc2[nH]nc(-c3ccc[nH]3)c2c1)c1ccccc1 (stereo not drawn) [Example 11, Phenylphosphonic acid methyl ester 3-(1H-pyrrol-2-yl)-1H-indazol-5-yl ester]	199 nM	90 nM		1250 nM	229 nM		
COP(=O)(OC)c1ccc2[nH]nc(/C=C/c3ccccc3)c2c1 [Example 12, [3-((E)-styryl)-1H-indazol-5-yl]phosphonic acid dimethyl ester]	290 nM	140 nM		2030 nM	2310 nM		
COP(=O)(O)c1ccc2[nH]nc(/C=C/c3ccccc3)c2c1 [Example 13, [3-((E)-styryl)-1H-indazol-5-yl]phosphonic acid monomethyl ester]		69 nM					
CCOP(=O)(OCC)c1ccc2[nH]nc(/C=C/c3ccccc3)c2c1 [Example 14, [3-((E)-styryl)-1H-indazol-5-yl]phosphonic acid diethyl ester]	780 nM	76 nM	5880 nM	1660 nM	290 nM		
COP(=O)(O)c1ccc2[nH]nc(-c3cc4ccccc4[nH]3)c2c1 [Example 15, [3-(1H-Indol-2-yl)-1H-indazol-5-yl]phosphonic acid monomethyl ester]	2260 nM	108 nM	> 10000 nM	> 10000 nM	4080 nM		
COP(=O)(O)c1ccc2[nH]nc(-c3cccs3)c2c1 [Example 16, (3-Thiophen-2-yl-1H-indazol-5-yl)phosphonic acid monomethyl ester]	> 10000 nM	2200 nM	> 10000 nM	> 10000 nM	2210 nM		
COP(=O)(O)c1ccc2[nH]nc(-c3ccc[nH]3)c2c1 [Example 17, [3-(1H-Pyrrol-2-yl)-1H-indazol-5-yl]phosphonic acid monomethyl ester]		770 nM					
CP(C)(=O)Oc1ccc2[nH]nc(-c3cc4ccccc4[nH]3)c2c1 [Example 18, Dimethylphosphinic acid 3-(1H-indol-2-yl)-1H-indazol-5-yl ester]	33 nM	20 nM	7570 nM	228 nM	33 nM		
CCOP(=O)(Oc1ccc2[nH]nc(-c3cc4nc(OC)ccc4[nH]3)c2c1)c1ccccc1 (stereo not drawn) [Example 23, Phenylphosphonic acid ethyl ester 3-(5-methoxy-1H-pyrrolo[3,2-b]pyridin-2-yl)-1H-indazol-5-yl ester]	249 nM	24 nM		442 nM	30 nM		
COc1ccc2[nH]c(-c3n[nH]c4ccc(OP(=O)(OC)c5ccccc5)cc34)cc2n1 (stereo not drawn) [Example 24, phenylphosphonic acid 3-(5-methoxy-1H-pyrrolo[3,2-b]pyridin-2-yl)-1H-indazol-5-yl ester methyl ester]	142 nM	24 nM		364 nM	22 nM		
COP(=O)(Oc1ccc2[nH]nc(/C=C/c3ccccc3)c2c1)c1ccccc1 (stereo not drawn) [Example 25, Phenylphosphonic acid methyl ester 3-styryl-1H-indazol-5-yl ester]	578 nM	41 nM					
COP(=O)(Oc1ccc2[nH]nc(-c3cc4ccccc4s3)c2c1)c1ccccc1 (stereo not drawn) [Example 26, Phenylphosphonic acid 3-benzo[b]thiophen-2-yl-1H-indazol-5-yl ester methyl ester]						3240 nM	730 nM
COP(=O)(Oc1ccc2[nH]nc(-c3cc4ccccc4s3)c2c1)c1ccccc1 (stereo not drawn) [Example 27, Phenylphosphonic acid 3-benzo[b]thiophen-2-yl-1H-indazol-5-yl ester methyl ester]	7560 nM	134 nM		1880 nM	353 nM		
COP(=O)(Oc1ccc2[nH]nc(-c3cc4ccccc4[nH]3)c2c1)C1CCCCC1 (stereo not drawn) [Example 32, Cyclohexylphosphonic acid 3-(1H-indol-2-yl)-1H-indazol-5-yl ester methyl ester]	1500 nM	26 nM		999 nM	119 nM		
O=P(O)(Oc1ccc2[nH]nc(-c3cc4ccccc4[nH]3)c2c1)c1ccccc1 [Example 33, Phenylphosphonic acid mono-[3-(1H-indol-2-yl)-1H-indazol-5-yl]ester]	291 nM	10 nM	316 nM	577 nM	17 nM		
